In this test the test system is BRAF V600E mutation in urinary cfDNA. In words: Monitoring of BRAF V600E mutation in urinary cfDNA (droplet digital PCR) of treated LCH/ECD patients. The format is in vivo, human. The settings on record: for detection of mutant BRAF V600E in urine cfDNA, treatment naive versus treated patient samples: FIG. 3, treated versus treatment-naive samples; for BRAF V600E mutation burden in urinary cfDNA over time on therapy: histiocytosis (LCH/ECD) patients, serial urine samples during treatment, FIG. 4-6. Here is the method: Urinary cell-free (cf)DNA analysis was performed in all patients and plasma cfDNA analysis in 19/26 patients. Serial urinary samples in 10 BRAF V600E mutant samples were also obtained to track disease burden with therapy. Urine and plasma cfDNA were quantified by a droplet digital PCR (ddPCR; QX-100, BioRad).
A two-step assay design was developed for a 28-30 basepair footprint in the target mutant gene sequence. FIG. 1 summarizes the assay design, which includes a first preamplification step to increase the number of copies of a target mutant gene sequence relative to wild-type gene sequences that are present in the sample. The pre-amplification is conducted in the presence of a wild-type (non-mutant) suppressing “WT blocker” oligonucleotide that is complementary to the wild-type sequence (but not the mutant sequence) to decrease amplification of wild-type DNA. The pre-amplification is performed with primers that include adapters (or “tags”) at the 5′ end to facilitate amplification in the second step.
The second step is additional amplification with primers complementary to the tags on the ends of the primers used in the first step and a TaqMan (reporter) probe oligonucleotide complementary to the mutant sequence for quantitative, digital droplet PCR.

SMILES strings stand for the structures. Entries after “also recorded” stand apart in the source; their conditions may differ.

Regarding `CC(C)(C)c1nc(-c2cccc(NS(=O)(=O)c3c(F)cccc3F)c2F)c(-c2ccnc(N)n2)s1` [dabrafenib, N-{3-[5-(2-aminopyrimidin-4-yl)-2-tert-butyl-1,3-thiazol-4-yl]-2-fluorophenyl}-2,6-difluorobenzenesulfonamide], the “detection of mutant BRAF V600E in urine cfDNA, treatment naive versus treated patient samples” value is on record as “decreased detection of mutant BRAF V600E” and the “BRAF V600E mutation burden in urinary cfDNA over time on therapy” value was “a decrease in the mutation in cfDNA during the course of treatment”.

As for `CCCS(=O)(=O)Nc1ccc(F)c(C(=O)c2c[nH]c3ncc(-c4ccc(Cl)cc4)cc23)c1F` [vemurafenib, N-{3-[5-(4-Chlorophenyl)-1H-pyrrolo[2,3-b]pyridin-3-carbonyl]-2,4-difluorophenyl}propane-1-sulfonamide], the “detection of mutant BRAF V600E in urine cfDNA, treatment naive versus treated patient samples” value is given as “decreased detection of mutant BRAF V600E” and the “BRAF V600E mutation burden in urinary cfDNA over time on therapy” value is “a decrease in the mutation in urinary cfDNA; also recorded: decreased BRAF mutant allele burden with therapy”. Further, under “one subject, end of treatment, FIG. 6”, the “BRAF V600E mutation in urinary cfDNA after the end of treatment” value is “an increase, or “rebound,” in the amount of the mutation in urinary cfDNA”.
